We go through 22 compounds from ChEMBL document CHEMBL1149940, “Conformationally constrained analogues of diacylglycerol. 6. Changes in PK-C binding affinity for 3-O-acyl-2-deoxy-L-ribonolactones bearing different acyl chains” (Bioorg Med Chem Lett, 1994).

Series [1] is described as follows: Logarithm of water solubility was reported. The series is classed as ADME. The following applies: buffer.
Series [2] in a line: Inhibition of [3H]phorbol-12,13-dibutyrate binding to mouse brain protein kinase C.
The species named for series [3] is Mus musculus. Nature of the series: Inhibition of [3H]phorbol-12,13-dibutyrate binding to mouse brain protein kinase C at 100 ug/mL.
The nature of series [4]: Inhibition of [3H]phorbol-12,13-dibutyrate binding to mouse brain protein kinase C (calculated value from percent inhibition at 100 ug/mL).
Series [5] in a line: Inhibition of [3H]phorbol-12,13-dibutyrate binding to mouse brain protein kinase C (No inhibition at >1700 uM).

In the case of `CCCCCCCCCC(=O)O[C@@H]1CC(=O)O[C@H]1CO`, the “log S” value in series [1] is on record as -0.54 M/m3. The compound also gave a Ki in series [2] of 4.06 µM. For `O=C(/C=C/c1ccccc1)O[C@H]1CC(=O)O[C@@H]1CO`, the inhibition in series [3] is 18.5%. Still for that read-out and setting: the same measure for `CCc1ccc(C(=O)O[C@H]2CC(=O)O[C@@H]2CO)cc1`: 21%.

Take `CCCCCCCCCCCCCC(=O)O[C@@H]1CC(=O)O[C@H]1CO`: the “log S” value in series [1] was -2.62 M/m3. The compound also returned a Ki in series [2] of 2.53 µM.

For `CCCCCCCCCCC(CCCC)CCCCCCC(=O)O[C@@H]1CC(=O)O[C@H]1CO` (some centres undefined), the “log S” value in series [1] is reported as -6.46 M/m3. This compound yielded a Ki in series [2] of 2.45 µM. The corresponding values for `CCCCCCCCCCC(C)CCCCCCC(=O)O[C@@H]1CC(=O)O[C@H]1CO` (some centres undefined) are -4.9 M/m3 and 2.39 µM. On the same counts, the results for `CCCCCC(=O)O[C@@H]1CC(=O)O[C@H]1CO` are 1.54 M/m3 and 188 µM. As to `O=C1C[C@@H](OC(=O)c2cccc3ccccc23)[C@H](CO)O1`, in series [1], the “log S” value was -0.18 M/m3. The Ki in series [2] is 23.5 µM. The compound `O=C1C[C@H](OC(=O)c2cccc3ccccc23)[C@@H](CO)O1` had an inhibition in series [3] of 30%. The same measure, in the same setting: as for `COc1ccc(C(=O)O[C@H]2CC(=O)O[C@@H]2CO)cc1`, the figure is 2%.

Turning to `CCCCCCCCCCCCCCCCCC(=O)O[C@@H]1CC(=O)O[C@H]1CO`, in series [1], the “log S” value is reported as -4.7 M/m3. Also, the Ki in series [2] came to 8.69 µM. The corresponding values for `CCCCCCCc1ccc(C(=O)O[C@@H]2CC(=O)O[C@H]2CO)cc1` are -2.05 M/m3 and 3.2 µM.

Consider `O=C(Cc1ccccc1)O[C@H]1CC(=O)O[C@@H]1CO`, for which the inhibition in series [3] amounted to 29%.

Regarding `O=C1C[C@@H](OC(=O)Cc2ccccc2)[C@H](CO)O1`, the Ki in series [4] was 222 µM. In series [1], the “log S” value is 1.09 M/m3. On to `O=C1C[C@H](OC(=O)c2ccccc2)[C@@H](CO)O1`, for which the inhibition in series [3] came out at 9.5%. For the compound `CCCCCCCc1ccc(C(=O)O[C@H]2CC(=O)O[C@@H]2CO)cc1`, the Ki in series [2] stood at 8.9 µM.

Consider `O=C1C[C@H](OC(=O)c2ccc(-c3ccccc3)cc2)[C@@H](CO)O1`, for which the inhibition in series [3] was 6.5%. In series [3], `O=C1C[C@H](OC(=O)c2ccc3ccccc3c2)[C@@H](CO)O1` registered an inhibition of 28%. For `CCCCCCCCCCC(CCCCCCC(=O)O[C@@H]1CC(=O)O[C@H]1CO)c1ccccc1` (some centres undefined), the “log S” value in series [1] is listed as -6.91 M/m3. The compound also came in with a Ki in series [2] of 1.21 µM.

With `CC(=O)O[C@@H]1CC(=O)O[C@H]1CO`, in series [5], the Ki result is reported as “Not Active”. In series [1], the “log S” value was found to be 3.62 M/m3. As to `CCCCCCCCCCCCCC(=O)O[C@H]1CC(=O)O[C@@H]1CO`, in series [2], the affinity, expressed as Ki, was 5.3 µM.

Regarding `CCCCCCCC/C=C/CCCCCCCC(=O)O[C@@H]1CC(=O)O[C@H]1CO`, the “log S” value in series [1] is on record as -3.9 M/m3. For the same compound, the inhibitory constant (Ki) in series [2] is 1.33 µM.
